These results are taken from ChEMBL document CHEMBL1201862, “PubChem BioAssay data set” (2004).

Usually GI50 stands for the concentration that inhibits growth by half.

Among the test systems are SK-MEL-28; SNB-19; M14; ACHN; HCT-116; CCRF-CEM; IGROV-1; K562; HOP-62; U-251; SF-539; HT-29; 786-0; NCI-H23; LOX IMVI; HCT-15.
What all share (experiment): DTP human tumour cell line panel, 48 h

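Growth conditions: 96-well plates. Treatment: test compound, 48 hours, 5 concentrations. Analysis: linear interpolation between bracketing concentrations; unreached endpoints set to highest concentration. Here, GI50 denotes the concentration required for 50% inhibition of growth.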 Calls of active or inactive are those of the source. Rule as the data show it: active = GI50 up to about 1.1 µM and inactive = higher.

In the case of `CC(C)(C)C(=O)CC(=O)C(C)(C)C.CC(C)(C)C(=O)CC(=O)C(C)(C)C.[SiH4]`, the GI50 with SK-MEL-28 was 3.15 µM (inactive); in the assay on SNB-19, 1.96 µM (inactive); in the assay with M14, 2.18 µM (inactive); in the assay on ACHN, 0.689 µM (active); with HCT-116, 1.26 µM (inactive); with CCRF-CEM it was 1.79 µM (inactive). Also, the GI50 with IGROV-1 was 1.47 µM (inactive); in the assay on K562, 1.57 µM (inactive); in the assay on HOP-62, 2.33 µM (inactive); in the assay on U-251, 0.596 µM (active); in the assay on SF-539 it was 2.56 µM (inactive); with HT-29, 0.475 µM (active). For the same compound, the GI50 is 2.69 µM (inactive) in the assay on 786-0 and 1.04 µM (active) with NCI-H23.
Consider `COc1ccc(C2=NN(C(=O)COc3ccc(Cl)cc3)C(O)(c3ccc(Cl)cc3)C2)cc1` (stereo not given), for which the GI50 with LOX IMVI, in the assay with SK-MEL-28, with SNB-19, in the assay with M14, in the assay with ACHN and in the assay on HCT-116 was > 100 µM (inactive) throughout. Further, the GI50 is > 100 µM (inactive) with IGROV-1; > 100 µM (inactive) in the assay with K562; > 100 µM (inactive) in the assay with HOP-62; > 100 µM (inactive) with U-251; greater than 100 µM in the assay with HCT-15; > 100 µM (inactive) with SF-539. Besides, the results for the GI50 in the assay on HT-29, in the assay on 786-0 and in the assay with NCI-H23 were > 100 µM (inactive), > 100 µM (inactive) and 36.1 µM (inactive), respectively.
For the compound `N=C(N)NCCCC(Nc1c2ccccc2nc2ccccc12)C(=O)O` (stereo not given), the GI50 in the assay with LOX IMVI, in the assay with SK-MEL-28, with M14, with ACHN, in the assay with HCT-116 and in the assay with CCRF-CEM was > 100 µM (inactive) in each case. Further, the GI50 was 84.9 µM (inactive) with K562; > 100 µM (inactive) in the assay on U-251; greater than 100 µM with HCT-15; > 100 µM (inactive) in the assay on SF-539; > 100 µM (inactive) in the assay on HT-29; > 100 µM (inactive) with 786-0. Moreover, the GI50 in the assay with NCI-H23 was > 100 µM (inactive).
Turning to `COC1(OC)C2(Cl)C(Cl)=C(Cl)C1(Cl)C1C2C2CC1(C(=O)O)c1ccccc12` (stereo not given), the GI50 with LOX IMVI is 16.7 µM (inactive); with SK-MEL-28 it was 19.4 µM (inactive); in the assay with SNB-19, 67.1 µM (inactive); with M14, 17.9 µM (inactive); with ACHN, 35.7 µM (inactive); in the assay on HCT-116, 17.5 µM (inactive). In addition, the GI50 in the assay with CCRF-CEM was 4.74 µM (inactive); with IGROV-1, 28.8 µM (inactive); in the assay on K562, 15.9 µM (inactive); in the assay with HOP-62, 23.4 µM (inactive); in the assay on U-251 it was 18.5 µM (inactive); in the assay with HCT-15, 23.8 µM. Besides, the GI50 is 30.3 µM (inactive) in the assay on HT-29, 16.4 µM (inactive) in the assay with 786-0 and 14.3 µM (inactive) in the assay with NCI-H23.
`CC(O[Si](C)(C)C)C1C=CC(C)n2c(=O)n(-c3ccccc3)c(=O)n21` (stereo not given): the GI50 with SK-MEL-28, with SNB-19, in the assay with M14, in the assay on HCT-116, in the assay with IGROV-1 and with K562 was > 100 µM (inactive) in each case. The GI50 in the assay with HOP-62 was > 100 µM (inactive); in the assay with U-251, > 100 µM (inactive); in the assay with HCT-15, greater than 100 µM; with SF-539, > 100 µM (inactive); in the assay with HT-29, > 100 µM (inactive); in the assay with 786-0 it was > 100 µM (inactive). In the assay on NCI-H23, the GI50 is > 100 µM (inactive).
